Patent publication US20040110802A1, “Antibacterial benzoic acid derivatives” (priority 2002, published 2004)
In brackets after ≈: the same amount, converted by molar mass.

Each molecule was assayed on SAUR 9218 (assay: MIC Test Method, standard agar dilution). Conditions: agar dilution, Mueller Hinton agar, incubated overnight at 35° C.; lowest concentration that inhibits visible growth.
Assay type: cell-based
Method in brief: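 Agar dilution in Mueller Hinton agar with serial 2-fold compound dilutions. Staphylococcus aureus strain 9218 spotted at approximately 10^4 to 10^5 cells per spot, incubated overnight at 35 °C; MIC (μg/ml) is the lowest concentration preventing visible growth.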

Structure (SMILES) | SAUR 9218 MIC [µg/mL]
CN(c1ccc(Cl)cc1)S(=O)(=O)c1cc(C(=O)Nc2ccc(Br)cc2C(=O)O)cs1 [drawing 825] | 2

Same assay, conditions: agar dilution, Mueller Hinton agar, incubated overnight at 35° C.; lowest concentration that inhibits visible growth; read-out: SAUR 9218 MIC

Structure (SMILES) | MIC [µg/mL]
CCCCCCCCCSc1cnc(C(=O)Nc2ccc(C#N)cc2C(=O)O)cn1 | 2 (≈ 4.69 µM)
O=C(O)c1cc(Br)ccc1NC(=O)c1cc2ccccc2n1CC1CCCCC1 | 4 (≈ 8.78 µM)
CCSc1cncc(C(=O)Nc2ccc(C#N)cc2C(=O)O)c1 | 1 (≈ 3.05 µM)
Cn1c(C(=O)Nc2cccc3cc(C(=O)Nc4ccc(C#N)cc4C(=O)O)[nH]c23)cc2ccccc21 | 0.125 (≈ 0.262 µM)
CCCCn1c(C(=O)Nc2ccc(Br)cc2C(=O)O)cc2ccccc21 | 4 (≈ 9.63 µM)
O=C(O)c1cc(Br)ccc1NC(=O)c1nsc2ccccc12 | 1 (≈ 2.65 µM)
N#Cc1ccc(NC(=O)c2cc(-c3ccccc3OC3CCOC3)on2)c(C(=O)O)c1 (stereo not drawn) | 0.25 (≈ 0.596 µM)
N#Cc1ccc(NC(=O)c2cc3cccc(NC(=O)c4ccc(Br)cc4)c3[nH]2)c(C(=O)O)c1 | 0.25 (≈ 0.497 µM)
CCCCCCSc1cnc(C(=O)Nc2ccc(Br)cc2C(=O)O)cn1 | 0.5 (≈ 1.14 µM)
N#Cc1ccc(NC(=O)c2cc(CN=[N+]=[N-])on2)c(C(=O)O)c1 | 4 (≈ 12.8 µM)
N#Cc1ccc(NC(=O)c2cc(-c3ccccc3Oc3cccc(-c4ccccc4)c3)on2)c(C(=O)O)c1 | > 128
Cc1sc(C(=O)Nc2ccc(C#N)cc2C(=O)O)cc1S(=O)(=O)N1CCC(C#N)(c2ccccc2)CC1 | 8 (≈ 15 µM)
COCC(=O)Nc1ccc2onc(C(=O)Nc3ccc(C#N)cc3C(=O)O)c2c1 | 4 (≈ 10.1 µM)
CC(=O)Nc1ccccc1-c1ccc2c(C(=O)Nc3ccc(C#N)cc3C(=O)O)noc2c1 | 0.5 (≈ 1.14 µM)
Cc1nc2cc(NS(=O)(=O)c3cc(C(=O)Nc4ccc(Br)cc4C(=O)O)sc3C)ccc2s1 | 32 (≈ 56.5 µM)
O=C(Nc1ccc(Br)cc1C(=O)O)c1ccco1 | > 128
Cc1c(S(=O)(=O)N2CCN(c3cccc(C(F)(F)F)c3)CC2)csc1C(=O)Nc1ccc(Br)cc1C(=O)O | 16 (≈ 25.3 µM)
N#Cc1ccc(NC(=O)c2noc3ccc(S(=O)(=O)N(CCO)CCO)cc23)c(C(=O)O)c1 | 0.5 (≈ 1.05 µM)
N#Cc1ccc(NC(=O)c2cncc(-c3ccccc3C(F)(F)F)c2)c(C(=O)O)c1 | 2 (≈ 4.86 µM)
N#Cc1ccc(NC(=O)c2noc3ccc([N+](=O)[O-])cc23)c(C(=O)O)c1 | 0.25 (≈ 0.71 µM)
N#Cc1ccc(NC(=O)c2noc3ccc(-c4ccccc4)cc23)c(C(=O)O)c1 | 0.125 (≈ 0.326 µM)
CN(c1ccc(Cl)cc1)S(=O)(=O)c1cc(C(=O)Nc2ccc(Br)cc2C(=O)O)c[n+]([O-])c1 | 8 (≈ 14.8 µM)
O=C(Nc1ccc(-c2ccccc2C(F)(F)F)cc1C(=O)O)c1cc(-c2ccccc2F)on1 | 8 (≈ 17 µM)
O=C(Nc1ccc(Br)cc1C(=O)O)c1csc(S(=O)(=O)N2CCc3ccccc32)c1 | 2 (≈ 3.94 µM)

Structure (SMILES) | MIC [µg/mL]
Cc1noc(C)c1-c1cc(C(=O)Nc2ccc(C#N)cc2C(=O)O)no1 | 1 (≈ 2.84 µM)
O=C(O)c1cc(Br)ccc1NC(=O)c1cccnc1Cl | > 128
N#Cc1ccc(NC(=O)c2ccc(SC3CCOCC3)nc2)c(C(=O)O)c1 | 0.125 (≈ 0.326 µM)
COc1cccc(-c2cnc(C(=O)Nc3ccc(Br)cc3C(=O)O)o2)c1 | 1 (≈ 2.4 µM)
CN(c1ccc(Cl)cc1)S(=O)(=O)c1ccc(C(=O)Nc2ccc(Br)cc2C(=O)O)s1 | 2 (≈ 3.77 µM)
C=CCn1c(C(=O)Nc2ccc(Br)cc2C(=O)O)cc2ccccc21 | 8 (≈ 20 µM)
N#Cc1ccc(NC(=O)c2noc3cc(-c4cccc(CO)c4)ccc23)c(C(=O)O)c1 | 0.125 (≈ 0.302 µM)
N#Cc1ccc(NC(=O)c2cc3cccc(NC(=O)c4cccc(S(=O)(=O)N5CCOCC5)c4)c3[nH]2)c(C(=O)O)c1 | 0.5 (≈ 0.872 µM)
Cn1c(C(=O)Nc2ccc(C#N)cc2C(=O)O)cc2ccc(NC(=O)N3CCOCC3)cc21 | 4 (≈ 8.94 µM)
CCCCCSc1nnc(C(=O)Nc2ccc(Br)cc2C(=O)O)o1 | 0.25 (≈ 0.603 µM)
CCCCN1C(=O)c2ccc(C(=O)Nc3ccc(C#N)cc3C(=O)O)cc2C1=O | 4 (≈ 10.2 µM)
O=C(O)c1cc(Cl)ccc1NC(=O)c1cc2ccccc2n1Cc1ccccc1 | 4 (≈ 9.88 µM)
N#Cc1ccc(NC(=O)c2cc3ccccc3n2CC2CCCCC2)c(C(=O)O)c1 | 1 (≈ 2.49 µM)
CCSc1ccc(C(=O)Nc2ccc(C#N)cc2C(=O)O)cn1.Cl | 0.5
CC(=O)c1ccccc1-c1ccc2onc(C(=O)Nc3ccc(C#N)cc3C(=O)O)c2c1 | 0.5 (≈ 1.18 µM)
COCCn1c(C(=O)Nc2ccc(Br)cc2C(=O)O)cc2ccccc21 | 16 (≈ 38.3 µM)
CCCCCn1c(C(=O)Nc2ccc(C#N)cc2C(=O)O)cc2ccccc21 | 2 (≈ 5.33 µM)
N#Cc1ccc(NC(=O)c2cc3cccc(NC(=O)C4CC4c4ccccc4)c3[nH]2)c(C(=O)O)c1 (stereo not drawn) | 0.5 (≈ 1.08 µM)
N#Cc1ccc(NC(=O)c2cc3cccc(NC(=O)c4ccc(F)cc4F)c3[nH]2)c(C(=O)O)c1 | 1 (≈ 2.17 µM)
N#Cc1ccc(NC(=O)c2noc3ccc(N)cc23)c(C(=O)O)c1 | 0.5 (≈ 1.55 µM)
Cc1sc(C(=O)Nc2ccc(Br)cc2C(=O)O)cc1S(=O)(=O)NC1CCN(Cc2ccccc2)CC1 | > 128
N#Cc1ccc(NC(=O)c2noc3cc(OS(=O)(=O)c4ccccc4)ccc23)c(C(=O)O)c1 | 0.5 (≈ 1.08 µM)
N#Cc1ccc(NC(=O)c2noc3ccc(-c4ccc(C(=O)N5CCOCC5)cc4)cc23)c(C(=O)O)c1 | 0.25 (≈ 0.504 µM)
N#Cc1ccc(NC(=O)c2cc(-c3ccccc3Oc3ccc(-c4ccccc4)cc3)on2)c(C(=O)O)c1 | 16 (≈ 31.9 µM)

Structure (SMILES) | MIC [µg/mL]
N#Cc1ccc(NC(=O)c2cc3cccc(NC(=O)Cc4cccs4)c3[nH]2)c(C(=O)O)c1 | 0.5 (≈ 1.12 µM)
O=C(Nc1ccc(Br)cc1C(=O)O)c1cccc(Br)n1 | 64 (≈ 160 µM)
CCSc1ccc(C(=O)Nc2cccc3cc(C(=O)Nc4ccc(C#N)cc4C(=O)O)[nH]c23)cc1 | 0.25 (≈ 0.516 µM)
CCN(CC)c1ccc(NS(=O)(=O)c2csc(C(=O)Nc3ccc(Br)cc3C(=O)O)c2C)cc1 | 64 (≈ 113 µM)
Cc1noc(C)c1CSc1ccc(C(=O)Nc2ccc(C#N)cc2C(=O)O)cn1 | 0.5 (≈ 1.22 µM)
N#Cc1ccc(NC(=O)c2cc(-c3ccccc3OC3CCC3)on2)c(C(=O)O)c1 | 0.125 (≈ 0.31 µM)
Cn1c(C(=O)Nc2ccc(C#N)cc2C(=O)O)cc2cccc(-c3ccc(S(C)(=O)=O)cc3)c21 | 8 (≈ 16.9 µM)
C=CCn1c(C(=O)Nc2ccc(C#N)cc2C(=O)O)cc2ccccc21 | 1 (≈ 2.9 µM)
Cc1nc(S(=O)(=O)Nc2cccc3cc(C(=O)Nc4ccc(C#N)cc4C(=O)O)n(C)c23)cn1C | 1 (≈ 2.03 µM)
COc1ccc(-c2cnc(C(=O)Nc3ccc(C#N)cc3C(=O)O)o2)cc1 | 1 (≈ 2.75 µM)
CCCCCCSc1ccc(C(=O)Nc2ccc(Cl)cc2C(=O)O)cn1 | 0.125 (≈ 0.318 µM)
N#Cc1ccc(NC(=O)c2cc3cccc(NC(=O)Cc4ccc(Cl)cc4)c3[nH]2)c(C(=O)O)c1 | 0.25 (≈ 0.529 µM)
O=C(Nc1ccc(Br)cc1C(=O)O)c1ccc2c(c1)C(=O)N(CC1CCCO1)C2=O (stereo not drawn) | 8 (≈ 16.9 µM)
O=C(Nc1ccc(Br)cc1C(=O)O)c1cc(CCCc2ccccc2)on1 | 0.25 (≈ 0.582 µM)
N#Cc1ccc(NC(=O)c2cc3cccc(N4C(=O)c5ccccc5C4=O)c3[nH]2)c(C(=O)O)c1 | 8 (≈ 17.8 µM)
CCCCN(CC)S(=O)(=O)c1cc(C(=O)Nc2ccc(C#N)cc2C(=O)O)sc1C | 8 (≈ 17.8 µM)
CCCCC(=O)Nc1cccc2cc(C(=O)Nc3ccc(C#N)cc3C(=O)O)[nH]c12 | 0.5 (≈ 1.24 µM)
COc1ccccc1-c1cc(C(=O)Nc2ccc(C#N)cc2C(=O)O)no1 | 0.125 (≈ 0.344 µM)
CCCCCCSc1cnc(C(=O)Nc2ccc(C#N)cc2C(=O)O)nc1 | 2 (≈ 5.2 µM)
Cn1c(C(=O)Nc2ccc(C#N)cc2C(=O)O)cc2ccc(-c3ccccc3C(F)(F)F)cc21 | 0.125 (≈ 0.27 µM)
CCN(CC)CCN(CC)S(=O)(=O)c1cc(C(=O)Nc2ccc(C#N)cc2C(=O)O)sc1C | 128 (≈ 260 µM)
N#Cc1ccc(NC(=O)c2noc3cc(Cl)ccc23)c(C(=O)O)c1 | 1 (≈ 2.93 µM)
Cn1nc(-c2ccccc2)cc1C(=O)Nc1ccc(Br)cc1C(=O)O | 64 (≈ 160 µM)
N#Cc1ccc(NC(=O)c2cc(-c3ccccc3OC3CCOCC3)on2)c(C(=O)O)c1 | 0.25 (≈ 0.577 µM)

Structure (SMILES) | MIC [µg/mL]
CCN(CC)C(=O)C1CCCN(S(=O)(=O)c2cc(C(=O)Nc3ccc(C#N)cc3C(=O)O)sc2C)C1 (stereo not drawn) | 64 (≈ 120 µM)
COC(Cc1cnc(C(=O)Nc2ccc(Br)cc2C(=O)O)cn1)[C@H](O)CO (stereo partly drawn) | > 128
CON=C1CCn2c(C(=O)Nc3ccc(C#N)cc3C(=O)O)cc3cccc1c32 | 1 (≈ 2.57 µM)
NS(=O)(=O)c1ccc2onc(C(=O)Nc3ccc(Br)cc3C(=O)O)c2c1 | 0.25 (≈ 0.568 µM)
Cn1c(C(=O)Nc2ccc(C#N)cc2C(=O)O)cc2cccc(Br)c21 | 0.5 (≈ 1.26 µM)
N#Cc1ccc(NC(=O)c2cncc(C#CC3C=NNC3)c2)c(C(=O)O)c1 (stereo not drawn) | 4 (≈ 11.1 µM)
N#Cc1ccc(NC(=O)c2noc3ccc(S(=O)(=O)Nc4ccccc4)cc23)c(C(=O)O)c1 | 0.015 (≈ 0.0324 µM)
N#Cc1ccc(NC(=O)C2=NOC(c3ccccc3)C2)c(C(=O)O)c1 (stereo not drawn) | 4 (≈ 11.9 µM)
Cc1cc(NS(=O)(=O)c2ccc(-c3cc(C(=O)Nc4ccc(Br)cc4C(=O)O)no3)cc2)no1 | 32 (≈ 58.5 µM)
COc1ccc2[nH]c(C(=O)Nc3ccc(C#N)cc3C(=O)O)cc2c1 | 128 (≈ 382 µM)
COc1ccc(C(=O)Nc2ccc(C#N)cc2C(=O)O)c(OC)n1 | > 128
N#Cc1ccc(NC(=O)c2cc(-c3ccccc3O)on2)c(C(=O)O)c1 | 0.125 (≈ 0.358 µM)
Cc1ccccc1-c1cccc2cc(C(=O)Nc3ccc(C#N)cc3C(=O)O)n(C)c12 | 0.125 (≈ 0.305 µM)
Cc1cc(C(=O)Nc2ccc(C#N)cc2C(=O)O)c(C)o1 | > 128
N#Cc1ccc(NC(=O)c2cc3cccc(NC(=O)c4ccccc4CCc4ccccc4)c3[nH]2)c(C(=O)O)c1 | 0.5 (≈ 0.946 µM)
Cc1sc(C(=O)Nc2ccc(C#N)cc2C(=O)O)cc1S(=O)(=O)N1CCCC2CCCCC21 (stereo not drawn) | 32 (≈ 65.6 µM)
O=C(O)c1cc(Br)ccc1NC(=O)c1noc2ccccc12 | 0.25 (≈ 0.692 µM)
CCCCSc1cnc(C(=O)Nc2ccc(Br)cc2C(=O)O)cn1 | 1 (≈ 2.44 µM)
Cn1c(C(=O)Nc2ccc(Cl)cc2C(=O)O)cc2cccc(S(=O)(=O)c3ccccc3)c21 | 0.125 (≈ 0.267 µM)
Cn1c(C(=O)Nc2ccc(C#N)cc2C(=O)O)cc2cccc(-c3ccccc3C(F)(F)F)c21 | 0.06 (≈ 0.129 µM)
N#Cc1ccc(NC(=O)c2cncc(Oc3ccccc3)c2)c(C(=O)O)c1 | 8 (≈ 22.3 µM)
CCCOc1ccccc1C(=O)Nc1cccc2cc(C(=O)Nc3ccc(C#N)cc3C(=O)O)[nH]c12 | 1 (≈ 2.07 µM)
CCCN(CCC)S(=O)(=O)c1ccc(C(=O)Nc2ccc(Br)cc2C(=O)O)cn1 | 8 (≈ 16.5 µM)
